According to patent US12121522B2, “Methods of treating cancer with an mTOR inhibitor” (Revolution Medicines, Inc., priority 2022, dated 2024):

System: mTORC2 activity (phosphorylation of Akt at Ser473)
Test: Cellular selectivity mTORC1 over mTORC2 (p4EBP1 vs pAkt)
Assay type: cell-based, human
Description: The in vitro profile of RMC-5552 was characterized using standard biochemical and cellular assays to determine the mode of interaction with mTORC1 and mTORC2. The effect of RMC-5552 on established cellular readouts for mTORC1 activity (including phosphorylation of P70S6K at Thr389 and 4EBP1 at Thr37/46), mTORC2 activity (including phosphorylation of Akt at Ser473), and cellular proliferation was monitored.
RMC-5552 binds to the intracellular protein FKBP12 and engages the FRB allosteric site and the ATP binding site on the mTORC1 complex, leading to inhibition of mTOR kinase activity.

## CO[C@H]1C[C@@H]2CC[C@@H](C)[C@@](O)(O2)C(=O)C(=O)N2CCCC[C@H]2C(=O)O[C@H]([C@H](C)C[C@@H]2CC[C@@H](OC(=O)NCCOCCOCCOCCOCCOCCOCCOCCOCCC(=O)NCCS(=O)(=O)c3ccc(C(=O)N4CCOc5ccc(-c6ccc(N)nc6)cc5C4)c(C)c3F)[C@H](OC)C2)C[C@@H](O)[C@H](C)/C=C(\C)[C@@H](O)[C@@H](OC)C(=O)[C@H](C)C[C@H](C)/C=C/C=C/C=C/1C [RMC-6272]
  selective inhibition of mTORC1 over mTORC2: > 10 fold
